Data taken from patent publication US20240041877A1, “DOSAGE REGIME AND METHOD FOR TREATING PULMONARY ARTERIAL HYPERTENSION” (Altavant Sciences GmbH, priority 2019, published 2024).

Experiment: Study KAR5585-101 Part 1 (SAD): plasma pharmacokinetics after a single oral dose of KAR5585, fasting and fed (incl. dose proportionality and food effect)
Settings: for AUC(0-inf) / AUC / concentration at 12 h / Cmax / AUC(0-t) / half-life / Tmax: human, plasma, po; for AUC: AUC0-tau
[1] = 400 mg, Geometric Mean, Cohort 3A (Fasting), 400 mg KAR5585 single oral dose, fasting
[2] = 400 mg, Geometric Mean, Cohort 3B (Fed), 400 mg KAR5585 single oral dose, fed
[3] = 400 mg, KAR5417 after 400 mg KAR5585 single oral, fasted, Cohort 3A, Geo. Mean
[4] = 400 mg, KAR5417 after 400 mg KAR5585 single oral, fasted, Cohort 3A, Mean
[5] = 400 mg, KAR5417 after 400 mg KAR5585 single oral, fed, Cohort 3B, Geo. Mean
[6] = 400 mg, KAR5417 after 400 mg KAR5585 single oral, fed, Cohort 3B, Mean
[7] = 700 mg, KAR5417 after 700 mg KAR5585 single oral, fasted, Cohort 4, Geo. Mean
[8] = 700 mg, KAR5417 after 700 mg KAR5585 single oral, fasted, Cohort 4, Mean
[9] = 1200 mg, KAR5417 after 1200 mg KAR5585 single oral, fasted, Cohort 5, Geo. Mean
[10] = 1200 mg, KAR5417 after 1200 mg KAR5585 single oral, fasted, Cohort 5, Mean
[11] = 2000 mg, KAR5417 after 2000 mg KAR5585 single oral, fasted, Cohort 6, Geo. Mean
[12] = 2000 mg, KAR5417 after 2000 mg KAR5585 single oral, fasted, Cohort 6, Mean

Protocol: Food effect was to be evaluated in Part 1, Period 2. Part 2 was permitted to begin before Part 1 was completed and, in each part, the data from each dose Cohort were to be reviewed for safety before the next dose Cohort was enrolled.
Part 1 had 6 Cohorts of 12 subjects each (for a total of 72 subjects) and Part 2 had 4 Cohorts of 12 subjects each (for a total of 48 subjects). In Part 1, the 12 subjects in Cohort 3 (400 mg)were studied twice, once under fasting conditions (Period 1) and once under fed conditions (Period 2) for food-effect assessment.
Pharmacokinetic data were to be summarized descriptively.

Which results are given for Nc1nc(O[C@H](c2ccc(Cl)cc2-c2ccccc2)C(F)(F)F)cc(N2CCC3(CC2)CN[C@H](C(=O)O)C3)n1 [KAR5417, (S)-8-(2-amino-6-((R)-1-(5-chloro-[1,1T-biphenyl]-2-yl)-2,2,2-trifluoroeth-oxy)pyrimidin-4-yl)-2,8-diazaspiro[4.5]decane-3-carboxylic acid]?
AUC(0-inf) (400 mg, AUC0-inf, Geometric Mean, Cohort 3A (Fasting), 400 mg KAR5585 single oral dose, fasting): 3280 ng·h/mL; AUC(0-inf) (400 mg, AUC0-inf, Geometric Mean, Cohort 3B (Fed), 400 mg KAR5585 single oral dose, fed): 6630 ng·h/mL; AUC [1]: 3120 ng·h/mL; AUC [2]: 6360 ng·h/mL; AUC [3]: 3120 ng·h/mL; AUC [4]: 3500 ng·h/mL; AUC [5]: 6360 ng·h/mL; AUC [6]: 6440 ng·h/mL; AUC(0-inf) (400 mg, AUC0-∞, KAR5417 after 400 mg KAR5585 single oral, fasted, Cohort 3A, Geo. Mean): 3280 ng·h/mL; AUC(0-inf) (400 mg, AUC0-∞, KAR5417 after 400 mg KAR5585 single oral, fasted, Cohort 3A, Mean): 3650 ng·h/mL; AUC(0-inf) (400 mg, AUC0-∞, KAR5417 after 400 mg KAR5585 single oral, fed, Cohort 3B, Geo. Mean): 6630 ng·h/mL; AUC(0-inf) (400 mg, AUC0-∞, KAR5417 after 400 mg KAR5585 single oral, fed, Cohort 3B, Mean): 6710 ng·h/mL; concentration at 12 h (400 mg, C12, KAR5417 after 400 mg KAR5585 single oral, fasted, Cohort 3A, Geo. Mean): 75.2 ng/mL; concentration at 12 h (400 mg, C12, KAR5417 after 400 mg KAR5585 single oral, fasted, Cohort 3A, Mean): 82.5 ng/mL; concentration at 12 h (400 mg, C12, KAR5417 after 400 mg KAR5585 single oral, fed, Cohort 3B, Geo. Mean): 165 ng/mL; concentration at 12 h (400 mg, C12, KAR5417 after 400 mg KAR5585 single oral, fed, Cohort 3B, Mean): 169 ng/mL; Cmax [1]: 444 ng/mL; Cmax [2]: 831 ng/mL; Cmax [3]: 444 ng/mL; Cmax [4]: 485 ng/mL; Cmax [5]: 831 ng/mL; Cmax [6]: 860 ng/mL; AUC(0-t) (400 mg, Plasma AUC0-96, KAR5417 in plasma, 400 mg (fasted) KAR5585 single oral dose, mean): 3630 ng·h/mL; AUC(0-t) (400 mg, Plasma AUC0-96, KAR5417 in plasma, 400 mg (fed) KAR5585 single oral dose, mean): 6590 ng·h/mL; half-life (400 mg, t1/2, KAR5417 after 400 mg KAR5585 single oral, fasted, Cohort 3A, Geo. Mean): 9.29 h; half-life (400 mg, t1/2, KAR5417 after 400 mg KAR5585 single oral, fasted, Cohort 3A, Mean): 11.3 h; half-life (400 mg, t1/2, KAR5417 after 400 mg KAR5585 single oral, fed, Cohort 3B, Geo. Mean): 19.8 h; half-life (400 mg, t1/2, KAR5417 after 400 mg KAR5585 single oral, fed, Cohort 3B, Mean): 20.5 h; Tmax (400 mg, tmax, KAR5417 after 400 mg KAR5585 single oral, fasted, Cohort 3A, Median): 4 h; Tmax (400 mg, tmax, KAR5417 after 400 mg KAR5585 single oral, fed, Cohort 3B, Median): 4 h; AUC(0-t) (700 mg, AUC0-12, KAR5417 after 700 mg KAR5585 single oral, fasted, Cohort 4, Geo. Mean): 3050 ng·h/mL; AUC(0-t) (700 mg, AUC0-12, KAR5417 after 700 mg KAR5585 single oral, fasted, Cohort 4, Mean): 4350 ng·h/mL; AUC(0-t) (700 mg, AUC0-24, KAR5417 after 700 mg KAR5585 single oral, fasted, Cohort 4, Geo. Mean): 3720 ng·h/mL; AUC(0-t) (700 mg, AUC0-24, KAR5417 after 700 mg KAR5585 single oral, fasted, Cohort 4, Mean): 5310 ng·h/mL; AUC [7]: 3870 ng·h/mL; AUC [8]: 5840 ng·h/mL; AUC(0-inf) (700 mg, AUC0-∞, KAR5417 after 700 mg KAR5585 single oral, fasted, Cohort 4, Geo. Mean): 4170 ng·h/mL; AUC(0-inf) (700 mg, AUC0-∞, KAR5417 after 700 mg KAR5585 single oral, fasted, Cohort 4, Mean): 6020 ng·h/mL; concentration at 12 h (700 mg, C12, KAR5417 after 700 mg KAR5585 single oral, fasted, Cohort 4, Geo. Mean): 93.8 ng/mL; concentration at 12 h (700 mg, C12, KAR5417 after 700 mg KAR5585 single oral, fasted, Cohort 4, Mean): 144 ng/mL; Cmax [7]: 544 ng/mL; Cmax [8]: 778 ng/mL; AUC(0-t) (700 mg, Plasma AUC0-96, KAR5417 in plasma, 700 mg KAR5585 single oral dose, mean): 5990 ng·h/mL; half-life (700 mg, t1/2, KAR5417 after 700 mg KAR5585 single oral, fasted, Cohort 4, Mean): 13.5 h; Tmax (700 mg, tmax, KAR5417 after 700 mg KAR5585 single oral, fasted, Cohort 4, Median): 4 h; AUC(0-t) (1200 mg, AUC0-12, KAR5417 after 1200 mg KAR5585 single oral, fasted, Cohort 5, Geo. Mean): 4580 ng·h/mL; AUC(0-t) (1200 mg, AUC0-12, KAR5417 after 1200 mg KAR5585 single oral, fasted, Cohort 5, Mean): 5350 ng·h/mL; AUC(0-t) (1200 mg, AUC0-24, KAR5417 after 1200 mg KAR5585 single oral, fasted, Cohort 5, Geo. Mean): 5810 ng·h/mL; AUC(0-t) (1200 mg, AUC0-24, KAR5417 after 1200 mg KAR5585 single oral, fasted, Cohort 5, Mean): 6790 ng·h/mL; AUC [9]: 6580 ng·h/mL; AUC [10]: 7700 ng·h/mL; AUC(0-inf) (1200 mg, AUC0-∞, KAR5417 after 1200 mg KAR5585 single oral, fasted, Cohort 5, Geo. Mean): 6880 ng·h/mL; AUC(0-inf) (1200 mg, AUC0-∞, KAR5417 after 1200 mg KAR5585 single oral, fasted, Cohort 5, Mean): 7970 ng·h/mL; concentration at 12 h (1200 mg, C12, KAR5417 after 1200 mg KAR5585 single oral, fasted, Cohort 5, Geo. Mean): 175 ng/mL; concentration at 12 h (1200 mg, C12, KAR5417 after 1200 mg KAR5585 single oral, fasted, Cohort 5, Mean): 213 ng/mL; Cmax [9]: 764 ng/mL; Cmax [10]: 896 ng/mL; AUC(0-t) (1200 mg, Plasma AUC0-96, KAR5417 in plasma, 1200 mg KAR5585 single oral dose, mean): 7910 ng·h/mL; half-life (1200 mg, t1/2, KAR5417 after 1200 mg KAR5585 single oral, fasted, Cohort 5, Geo. Mean): 14 h; half-life (1200 mg, t1/2, KAR5417 after 1200 mg KAR5585 single oral, fasted, Cohort 5, Mean): 14.9 h; Tmax (1200 mg, tmax, KAR5417 after 1200 mg KAR5585 single oral, fasted, Cohort 5, Median): 6 h; AUC(0-t) (2000 mg, AUC0-12, KAR5417 after 2000 mg KAR5585 single oral, fasted, Cohort 6, Geo. Mean): 6550 ng·h/mL; AUC(0-t) (2000 mg, AUC0-12, KAR5417 after 2000 mg KAR5585 single oral, fasted, Cohort 6, Mean): 6910 ng·h/mL; AUC(0-t) (2000 mg, AUC0-24, KAR5417 after 2000 mg KAR5585 single oral, fasted, Cohort 6, Geo. Mean): 8520 ng·h/mL; AUC(0-t) (2000 mg, AUC0-24, KAR5417 after 2000 mg KAR5585 single oral, fasted, Cohort 6, Mean): 9080 ng·h/mL; AUC [11]: 9880 ng·h/mL; AUC [12]: 10600 ng·h/mL; AUC(0-inf) (2000 mg, AUC0-∞, KAR5417 after 2000 mg KAR5585 single oral, fasted, Cohort 6, Geo. Mean): 10200 ng·h/mL; AUC(0-inf) (2000 mg, AUC0-∞, KAR5417 after 2000 mg KAR5585 single oral, fasted, Cohort 6, Mean): 10900 ng·h/mL; concentration at 12 h (2000 mg, C12, KAR5417 after 2000 mg KAR5585 single oral, fasted, Cohort 6, Geo. Mean): 280 ng/mL; concentration at 12 h (2000 mg, C12, KAR5417 after 2000 mg KAR5585 single oral, fasted, Cohort 6, Mean): 354 ng/mL; Cmax [11]: 1030 ng/mL; Cmax [12]: 1080 ng/mL; AUC(0-t) (2000 mg, Plasma AUC0-96, KAR5417 in plasma, 2000 mg KAR5585 single oral dose, mean): 10700 ng·h/mL; half-life (2000 mg, t1/2, KAR5417 after 2000 mg KAR5585 single oral, fasted, Cohort 6, Geo. Mean): 22.1 h; half-life (2000 mg, t1/2, KAR5417 after 2000 mg KAR5585 single oral, fasted, Cohort 6, Mean): 22.6 h; Tmax (2000 mg, tmax, KAR5417 after 2000 mg KAR5585 single oral, fasted, Cohort 6, Median): 5 h; Tmax (median tmax, range across cohorts, single oral 100-2000 mg KAR5585, fasting cohorts): 3 to 6 h; time by which all subjects had measurable concentrations (postdose, single oral KAR5585): ≤ 0.25 h; time concentrations remained above the LLOQ (single 100 mg KAR5585, fasting): up to 12 hours; time concentrations remained above the LLOQ (single 200 mg KAR5585, fasting): ≤ 24 h; time concentrations remained above the LLOQ / measurable (single 400 mg KAR5585, fasting): ≤ 36 h; time concentrations remained above the LLOQ (single 700 mg KAR5585, fasting): ≤ 48 h; time concentrations remained above the LLOQ (single 1200 mg KAR5585, fasting): ≤ 48 h; time concentrations remained above the LLOQ (single 2000 mg KAR5585, fasting): ≤ 72 h; dose proportionality of AUC0-inf and Cmax (power model, 95% CI of slope) (single dose range 100 to 2000 mg KAR5585, fasting): dose proportionality was concluded; plasma concentrations of KAR5417 relative to plasma concentrations of KAR5585 (single oral KAR5585, fasting): approximately 10 fold
